The subject of the experiment is drug-resistant Mycobacterium tuberculosis. Conditions: peptide 10 micrograms per ml, seven days.

Here are results for one substance from patent US20100210536A1, “USE OF LEPTIN (22-56 ) AS A THERAPEUTIC AGENT” (priority 2007, published 2010).

Where no end group is shown, it is not given here.

For orientation: % inhibition means the percentage by which the read-out fell short of the control.

Consider “VPIQKVQDDTKTLIKTIVTRINDISHTQSVSSKQK-OH [Leptin (22-56)]”, for which the “% inhibition” value is listed as 0.0%.
